Earlier results in patent publication US6086864A, “Pharmaceutical formulations comprising polythiourea and methods of use thereof” (Merrell Pharmaceuticals Inc., priority 1997, dated 2000).

Experiments:
[1] = in vivo
[2] = test system: viral protein responsible for cell recognition; conditions: purified form of heparin

Which side effects [1] does the source give for heparin here?
Its side effects is “hemorrhage and increased clot formation time as well as thrombocytopenia”.

What about the “inhibition of host cell infection” value [2] of the same substance?
The value was “limited inhibition of host cell infection”.
